Molecular target: T1, human mAChR M4 (Homo sapiens, UniProt P08173)
T1 construct: expressed in transfected cells; host or cells: CHO-K1 (American Type Culture Collection), stably expressing hM4 and Gqi5
T1 sequence (P08173 1-479): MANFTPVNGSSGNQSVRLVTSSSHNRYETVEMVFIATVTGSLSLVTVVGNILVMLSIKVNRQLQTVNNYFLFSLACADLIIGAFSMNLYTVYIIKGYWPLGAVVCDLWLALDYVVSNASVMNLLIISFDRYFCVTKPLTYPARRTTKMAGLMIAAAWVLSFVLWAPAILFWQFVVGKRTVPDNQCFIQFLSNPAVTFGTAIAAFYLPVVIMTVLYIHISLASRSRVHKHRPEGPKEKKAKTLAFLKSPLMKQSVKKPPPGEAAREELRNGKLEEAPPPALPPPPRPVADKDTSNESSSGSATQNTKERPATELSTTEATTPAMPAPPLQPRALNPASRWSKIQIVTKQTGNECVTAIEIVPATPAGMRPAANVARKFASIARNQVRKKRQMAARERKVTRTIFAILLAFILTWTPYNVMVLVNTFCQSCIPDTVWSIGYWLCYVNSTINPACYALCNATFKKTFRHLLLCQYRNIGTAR
Assay: mAChR M4 cell-based functional assay: calcium mobilization (Fluo-4, FDSS), potentiation of EC20 acetylcholine response in hM4-Gqi5 CHO-K1 cells
Conditions: human M4; for Emax at 30 µM: CHO-K1, % ACh maximum at 30 μM; for EC50: potentiation of EC20 acetylcholine response, calcium mobilization
Procedure, shortened: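 Readout is the fluorescence-ratio rise at 1 Hz on FDSS, with PAM activity taken as concentration-dependent enhancement of the EC20 acetylcholine response, fitted four-parameter for EC50/Emax. hM4-Gqi5 CHO-K1 cells carried Fluo-4 AM dye; test compounds (11 points, 1:3) preceded EC20 acetylcholine additions at 144 s and 230 s.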

SMILES | Emax at 30 µM [%] | EC50 [µM]
CC(=O)N1CC=C(c2cnc3c(c2)CN(c2nn4c(=O)ccnc4cc2C)CC3)CC1 [Compound 1-388, 7-(3-(1-acetyl-1,2,3,6-tetrahydropyridin-4-yl)-7,8-dihydro-1,6-naphthyridin-6(5H)-yl)-8-methyl-4H-pyrimido[1,2-b]pyridazin-4-one] | 61 | 1.28
Cc1cc(-c2cnc3c(c2)CN(c2nn4c(=O)ccnc4cc2C)CC3)n(C)n1 [Compound 1-390, 7-(3-(1,3-dimethyl-1H-pyrazol-5-yl)-7,8-dihydro-1,6-naphthyridin-6(5H)-yl)-8-methyl-4H-pyrimido[1,2-b]pyridazin-4-one] | 98 | 0.486
Cc1cc2nccc(=O)n2nc1N1CCc2ncc(-c3ncc(C)n3C)cc2C1 [Compound 1-391, 7-(3-(1,5-dimethyl-1H-imidazol-2-yl)-7,8-dihydro-1,6-naphthyridin-6(5H)-yl)-8-methyl-4H-pyrimido[1,2-b]pyridazin-4-one] | 49 | 
Cc1cc2nccc(=O)n2nc1N1CCc2ncc(-c3ncsc3C)cc2C1 [Compound 1-393, 8-methyl-7-(3-(5-methylthiazol-4-yl)-7,8-dihydro-1,6-naphthyridin-6(5H)-yl)-4H-pyrimido[1,2-b]pyridazin-4-one] | 83 | 1.05
Cc1cc2nccc(=O)n2nc1N1CCc2ncc(-c3ccnn3C(C)C)cc2C1 [Compound 1-396, 7-(3-(1-isopropyl-1H-pyrazol-5-yl)-7,8-dihydro-1,6-naphthyridin-6(5H)-yl)-8-methyl-4H-pyrimido[1,2-b]pyridazin-4-one] | 60 | 0.597
Cc1ncc(-c2cnc3c(c2)CN(c2nn4c(=O)ccnc4cc2C)CC3)o1 [Compound 1-397, 8-methyl-7-(3-(2-methyloxazol-5-yl)-7,8-dihydro-1,6-naphthyridin-6(5H)-yl)-4H-pyrimido[1,2-b]pyridazin-4-one] | 87 | 1.08

Results, then the compound that gave them:

Emax at 30 µM [%] | EC50 [µM] | SMILES
92 | 0.046 | COc1cc(C)c(-c2cnc3c(c2)CN(c2nn4c(=O)ccnc4cc2C)CC3)cn1 [Compound 1-387, 7-(3-(6-methoxy-4-methylpyridin-3-yl)-7,8-dihydro-1,6-naphthyridin-6(5H)-yl)-8-methyl-4H-pyrimido[1,2-b] pyridazin-4-one]
63 | 0.271 | Cc1nc(-c2cnc3c(c2)CN(c2nn4c(=O)ccnc4cc2C)CC3)cs1 [Compound 1-389, 8-methyl-7-(3-(2-methylthiazol-4-yl)-7,8-dihydro-1,6-naphthyridin-6(5H)-yl)-4H-pyrimido[1,2-b] pyridazin-4-one]
105 | 0.259 | Cc1cc2nccc(=O)n2nc1N1CCc2ncc(-c3cncn3C)cc2C1 [Compound 1-392, 8-methyl-7-(3-(1-methyl-1H-imidazol-5-yl)-7,8-dihydro-1,6-naphthyridin-6(5H)-yl)-4H-pyrimido[1,2-b] pyridazin-4-one]
86 | 0.074 | Cc1cscc1-c1cnc2c(c1)CN(c1nn3c(=O)ccnc3cc1C)CC2 [Compound 1-394, 8-methyl-7-(3-(4-methylthiophen-3-yl)-7,8-dihydro-1,6-naphthyridin-6(5H)-yl)-4H-pyrimido[1,2-b]pyridazin-4-one]
90 | 0.138 | Cc1cc2nccc(=O)n2nc1N1CCc2ncc(-c3scnc3C)cc2C1 [Compound 1-395, 8-methyl-7-(3-(4-methylthiazol-5-yl)-7,8-dihydro-1,6-naphthyridin-6(5H)-yl)-4H-pyrimido[1,2-b]pyridazin-4-one]
93 | 0.169 | Cc1cc(F)ncc1-c1cnc2c(c1)CN(c1nn3c(=O)ccnc3cc1C)CC2 [Compound 1-398, 7-(3-(6-fluoro-4-methylpyridin-3-yl)-7,8-dihydro-1,6-naphthyridin-6(5H)-yl)-8-methyl-4H-pyrimido[1,2-b]pyridazin-4-one]

Reference: patent publication US20250101041A1, “POSITIVE ALLOSTERIC MODULATORS OF THE MUSCARINIC ACETYLCHOLINE RECEPTOR M4” (Vanderbilt University, priority 2022, published 2025)
